The test system of data set [1] is LP-1 cells (1,6-fucosylation on the antibody). Put plainly: Fucosylation status of LP-1-generated IgG by reducing PLRP-MS. Conditions: 100 μM, 5 days, in words. The class given is cell-based, human. The text has this: To further define the results of the AOL dot blot, samples of the IgGs produced by cells treated with the following fucose analogs (that gave moderate to strong decreases in the dot blot AOL signal) were isolated and examined by reducing PLRP-MS to verify the fucosylation status using the MW of the heavy chain: alkynyl fucose peracetate; 5-vinylfucose tetraaceate; 5-methylketofucose tetraacetate; 6-bromofucose tetraacetate; 6-fluorofucose tetraacetate; 5-ethylfucose tetraacetate; 5-epoxyfucose tetraacetate; 6′6-difluorofucose tetraacetate; 6-keto-6-ethyl fucose tetraacetate; and 2-fluorofucose peracetate.
40 mL samples of LP-1 cells (250,000 cells/mL) were treated with 100 μM of a fucose analog for 5 days as described above, and the IgGs were purified as described using protein A resin. The yields were estimated by UV spectroscopy assuming an extinction coefficient of 1.4 AU/(mg/mL). Seven of the ten compounds yielded enough IgG to perform the analysis (use of SGD-2067, SGD-1964, and SGD-2020 yielded <10 μg of IgG, likely due to toxicity of the analogs to the cells). The remaining IgGs were reduced with 10 mM DTT at 37° C. for 15 min and were separated on PLRP followed by MS analysis using a QTOF mass spectrometer. The resulting heavy chain peaks were examined and compared to the IgG generated by untreated cells.
The mass spectrometry signals were evaluated by comparing the peak height of the heavy chain versus heavy chain minus fucose and heavy chain minus fucose plus the mass of the fucose analog (which would arise if there was incorporation of the analog into the antibody carbohydrate).

The subject of data set [2] is LS174T colon adenocarcinoma. Put plainly: Xenograft of pre-treated LS174T cells (Example 7, Study 2). Conditions: 20 mM in drinking water. The class given is in vivo, female nude mice. How it is done:
(§1) To further evaluate the activity of these fucose analogs, further studies were performed in vivo using tumor cells that had been pre-treated by culturing in the presence of a fucose analog, or using untreated tumor cells. Tumor cells were implanted into 10 mice per group as follows. For the LS174T, PC-3, and Caki-1 cell lines, 5×10^5 cells in 25% Matrigel were implanted subcutaneously into female nude mice. For HL-60 and Ramos cell lines, 5×10^6 cells were implanted subcutaneously into female SCID mice. For mice implanted with untreated tumor cells, mice were provided regular drinking water. For mice implanted with tumor cells pre-treated with 2-fluorofucose (SGD-2083), the mice were provided drinking water supplemented with 20 mM 2-fluorofucose (SGD-2083). For mice implanted with tumor cells pre-treated with alkylnyl fucose (SGD-1887), the mice were provided with regular drinking water.
(§2) After 3 weeks of receiving 2-fluorofucose-containing drinking water, mice were returned to regular drinking water, except for mice with Caki-1 tumors. The latter mice were returned to regular drinking water for one week. After the week of receiving regular water, mice were randomized to two groups of 5 each to receive drinking water supplemented with 20 mM 2-fluorofucose or regular drinking water. Mice were sacrificed when tumors reached about 1000 mm^3.

The subject of data set [3] is PC-3. Kind of data set: Xenograft of pre-treated PC-3 cells (Example 7, Study 2). Conditions: 20 mM in drinking water. The class given is in vivo, female nude mice. Here is the method: as §1, §2
For data set [4], the system named is Caki-1 renal cell carcinoma. Kind of data set: Xenograft of pre-treated Caki-1 cells (Example 7, Study 2). The class given is in vivo, female nude mice. Conditions: 20 mM in drinking water, not in first treatment period, observed in second. How it is done: as §1, §2
The subject of data set [5] is P-selectin ligand on Ramos cells. Kind of data set: Cell surface P-selectin ligand by FACS, P-selectin fusion protein, Ramos. The class given is cell-based, human. How it is done: 100 μM of each inhibitor was used under standard culture conditions for approximately 1-2 weeks with regular changes of culture medium including fresh inhibitor. After the incubation period, the cells were analyzed by FACS using four different detection reagents: biotinylated-Lens culimaris agglutinin-A (LCA), anti-Lewis' antibody (anti-SSEA1), an anti-Lewis^y antibody (cBR96), and a Recombinant Human P-Selectin/CD62P/Fc Fusion protein. The procedure involved washing of the cells with FACS buffer (PBS+10% bovine serum albumin+0.02% sodium azide) 3 times followed by incubation with the primary detection reagent for 1 hr at 4° C., followed by 3 washes with FACS buffer and then incubation with the secondary detection reagent for 1 hr at 4° C. The cells were finally washed with FACS buffer 3 times and resuspended in FACS buffer and examined using a BD FACScan instrument. […] The P-selectin fusion protein detects P-selectin ligand present on the surface of cells, an interaction which involves the sialyl Lewis' epitope present of the P-selectin ligand.

Data set [6] has as its system LS174T, PC-3, HL-60, Ramos, and Caki-1 cell lines. Kind of data set: Cell surface fucosylation of human-derived cell lines cultured with fucose analog, FACS (Example 7, Study 1). The format is cell-based. Conditions: 100 μM, two weeks. How it is done:
Human-derived cell lines were evaluated for their susceptibility to the fucose analog 2-fluorofucose in vitro. The cells lines were: LS174T colon adenocarcinoma, […], HL-60 acute mylogenous leukemia, Ramos Burkitt lymphoma, and Caki-1 renal cell carcinoma. The cell lines were cultured in the presence of 100 μM 2-fluorofucose (SGD-2083) in growth media, 100 μM alkynylfucose (SGD-1887) in growth media, or control growth media (without a fucose analog) for two weeks. The growth media were MEM Eagle with 10% FBS (LS174T), 50:50 F12 and RPMI with 10% FBS (PC-3), RPMI with 10% FBS (HL-60), IMDM with 10% FBS (Ramos), and McCoy with 10% FBS ([…]). The cells were evaluated for cell surface fucosylation by FACS using antibody cBR96 to detect LewisY, antibody SSEA-1 to detect LewisX, P-selectin ligand to detect P-selectin, and AOL lectin to detect the general level of fucosylation.

In data set [7] the test system is Ramos Burkitt lymphoma. Put plainly: Xenograft of pre-treated Ramos cells (Example 7, Study 2). The format is in vivo, female SCID mice. Conditions: 20 mM in drinking water. Here is the method:
as §1, §2

Data set [8] relates to core antibody fucosylation (endogenous antibodies). Put plainly: Antibody fucosylation in vivo following oral administration, dose study (Example 3), dot blot. Set-up: species or system Female BALC/c mice. How it is done:
In this study, the effects of oral administration of the fucose analog 2-fluorofucose (SGD-2083) were further examined. Female BALC/c mice were offered […] 2-fluorofucose in their drinking water for 14 days. Mice were immunized with TiterMAX Classic and offered 1, 10 and 100 mM 2-fluorofucose in their drinking water for an additional 7 days. Mice were then terminally bled and serum obtained. Endogenous antibodies were purified by passing the serum over a protein A column
The collected antibodies were evaluated for fucosylation levels by dot blot as follows. Antibodies from untreated and treated animals (0.5 μg each), as well as standards of cAC10 with 0 to 100% fucose (only study 1), were blotted onto a nitrocellulose membrane. The proteins levels were visualized with Ponceau S. The blot was probed with biotinylated AOL lectin and developed with streptavidin HRP and ECL (as described above). Gel loading (visible) and fucose signals (bioluminescence) were measured with an Alpha Innotech camera and quantitated with the machine software.

“Also recorded” adds a separate entry of the source.

For the molecule `C#CC(OC(C)=O)[C@@H](OC(C)=O)[C@@H](OC(C)=O)[C@@H](C=O)OC(C)=O` (stereo partly shown) [SGD-1890, 5-ethynylarabinose tetraacetate], the “PLRP/MS (inhibition or incorporation)” value in data set [1] is “complete inhibition; also recorded: Full inhibitor”.

Consider `C[C@H](O)[C@@H](O)[C@@H](O)[C@H](F)C=O` [SGD-2083, 2-fluoro-2-deoxy fucose], for which the tumor growth result in data set [2] was “tumor growth inhibition in vivo was seen”; in data set [3], “tumor growth inhibition in vivo was seen”; in data set [4] it was “tumor growth inhibition in vivo was seen”; in data set [7], “No change in tumor growth”. Also, the “signal for P-selectin ligand (increase upon treatment)” value in data set [5] was “not observed”. In addition, in data set [6], the “inhibition of protein fucosylation, compared with alkynyl fucose (SGD-1887)” value was “generally a better inhibitor”. Also, the antibody fucosylation levels result in data set [8] (1 mM in drinking water) was “highest in the untreated control and 1 mM 2-fluorofucose groups”; in data set [8] (intermediate concentration (10 mM) in drinking water, compared with 100 mM), “nearly as depleted of fucose as the high concentration”. The “fucosylation levels of antibodies” value in data set [8] (1, 10 and 100 mM in drinking water, 21 days) is “dose-dependent decrease”.

(Values after US9504702B2, “Methods of inhibition of protein fucosylation in vivo using fucose analogs” (Seattle Genetics, Inc., priority 2010, dated 2016).)
